Test results published in PMC7038240 (Antimicrobial Agents and Chemotherapy, 2020).
Read-outs that look alike come from different tables or passages of the source.

How the values were obtained:
Format in all cases: cell-based
[1] = tested on: M. morgannii; assay: organism not typed; settings: strain 769909; OXA-48
Description: (§1) The antibacterial activity of cefepime-taniborbactam was compared to that of ceftazidime-avibactam, ceftolozane-tazobactam, and cefepime-tazobactam against a diverse panel of Enterobacterales and P. aeruginosa clinical isolates with defined β-lactamase subtypes (see Table S1 in the supplemental material). IMP-producing strains were excluded, as none of the BLI-protected cephalosporins inhibited IMP sufficiently to provide a clinically relevant rescue of the partner β-lactam, a characteristic also shared by approved BLI-protected carbapenems (meropenem-vaborbactam and imipenem-relebactam). […] The antibacterial activity of the cephalosporins alone was included to ascertain the level of potentiation by the partnered BLI. BLIs were tested at a fixed concentration of 4 μg/ml in all combinations except cefepime-tazobactam, where tazobactam was fixed at a concentration of 8 μg/ml ([38]). The collection comprised 143 clinical isolates collected from 2005 and 2018.
(§2) The in vitro antibacterial activity of the β-lactams alone or in combination with the BLIs was determined in cation-adjusted Mueller-Hinton broth (CAMHB) microdilution assays according to CLSI recommendations ([51]). […]. The inocula for the broth microdilution assays were prepared by the broth culture method ([51]). […]

[2] = tested on: C. freundii; assay: microbe, parasite or virus in culture; settings: Citrobacter freundii
Description: as §1, §2

[3] = tested on: E. coli; assay: microbe, parasite or virus in culture; settings: Escherichia coli, read-out: MIC
Description: as §1, §2

[4] = tested on: P. aeruginosa; assay: microbe, parasite or virus in culture; settings: Pseudomonas aeruginosa, read-out: MIC
Description: as §1, §2

[5] = tested on: S. paratyphi; assay: microbe, parasite or virus in culture; settings: Salmonella enterica, strain 527, AmpC/TEM-1
Description: as §1, §2

[6] = tested on: K. pneumoniae; assay: microbe, parasite or virus in culture; settings: Klebsiella pneumoniae, read-out: MIC
Description: as §1, §2

[7] = tested on: S. typhi; assay: microbe, parasite or virus in culture; settings: Salmonella enterica, strain 26A, AmpC/TEM-1
Description: as §1, §2

[8] = tested on: K. aerogenes; assay: microbe, parasite or virus in culture; settings: Klebsiella aerogenes
Description: as §1, §2

[9] = tested on: S. marcescens; assay: microbe, parasite or virus in culture; settings: Serratia marcescens
Description: as §1, §2

[10] = tested on: K. oxytoca; assay: microbe, parasite or virus in culture; settings: Klebsiella oxytoca, read-out: MIC
Description: as §1, §2

## Cn1c(N)c(NC(=O)NCCN)c[n+]1CC1=C(C(=O)O)N2C(=O)[C@@H](NC(=O)/C(=N\OC(C)(C)C(=O)[O-])c3nsc(N)n3)[C@H]2SC1 [TOL]
[1]
  MIC: 8 µg/mL
[2]; strain 134390, AmpC/TEM-1
  MIC: 8 µg/mL
[2]; strain 241181, AmpC/TEM-163
  MIC: 16 µg/mL
[3]; strain 469, AmpC/SHV-12/TEM-1
  MIC: 8 µg/mL
[3]; strain 1924, TEM-12
  MIC: 16 µg/mL
[3]; strain 664507, OXA-48
  MIC: 64 µg/mL
[3]; strain 664516, OXA-48
  MIC: 64 µg/mL
[3]; strain 664520, OXA-48
  MIC: 64 µg/mL
[3]; strain 664522, OXA-48
  MIC: 128 µg/mL
[3]; strain 664523, OXA-48
  MIC: 64 µg/mL
[3]; strain 849121, KPC
  MIC: 32 µg/mL
[3]; strain 873435, CTX-M-15
  MIC: 128 µg/mL
[3]; strain 875627, CTX-M-27
  MIC: 16 µg/mL
[3]; strain 878358, TEM-1/CTX-M
  MIC: 64 µg/mL
[3]; strain 890500, TEM-1/CTX-M-14
  MIC: 8 µg/mL
[3]; strain 1275635, VIM-23
  MIC: ≥ 256 µg/mL
[3]; strain 1459453, NDM-7
  MIC: ≥ 256 µg/mL
[3]; strain CDC-0001, KPC
  MIC: 64 µg/mL
[3]; strain CDC-0069, NDM
  MIC: ≥ 256 µg/mL
[3]; strain CDC-0149, NDM
  MIC: ≥ 256 µg/mL
[3]; strain EC1552 2A, AmpC/CMY-2/TEM-1, CTX-M-15
  MIC: 16 µg/mL
[3]; strain ESBL 5, CTX-M-15/TEM-1
  MIC: 128 µg/mL
[3]; strain SI-LP377, CTX-M-2
  MIC: 32 µg/mL
[3]; strain SI-M004, SHV-2/GES-12
  MIC: 64 µg/mL
[3]; strain SI-PO26, AmpC/CMY-2/TEM-1
  MIC: 8 µg/mL
[3]; strain SI-V502, TEM-29/CTX-M-15
  MIC: 8 µg/mL
[3]; strain VER, OXA-48
  MIC: 2 µg/mL
[4]; ATCC27853, strain ATCC 27853, W.T.
  MIC: 1 µg/mL
[4]; strain 10.257, PDC-50
  MIC: 16 µg/mL
[4]; strain 11.516, PDC-79
  MIC: 64 µg/mL
[4]; strain 11.698, PDC-87
  MIC: 32 µg/mL
[4]; strain 11.813, PDC-91
  MIC: 8 µg/mL
[4]; strain 13.1716, PDC-74
  MIC: 128 µg/mL
[4]; strain 13.1717, PDC-74
  MIC: 64 µg/mL
[4]; strain 13.1737, PDC-80
  MIC: 128 µg/mL
[4]; strain 13.1755, PDC-86
  MIC: 128 µg/mL
[4]; strain 13.1760, PDC-77
  MIC: 32 µg/mL
[4]; strain 13.1775, PDC-87
  MIC: 16 µg/mL
[4]; strain 247.3D, VIM-2
  MIC: ≥ 256 µg/mL
[4]; strain 1129, PDC
  MIC: 1 µg/mL
[4]; strain 3615, PDC/TEM-1
  MIC: 4 µg/mL
[4]; strain 5671, VIM-1
  MIC: 64 µg/mL
[4]; strain 8273, PDC/TEM-1
  MIC: 1 µg/mL
[4]; strain 164951, W.T.
  MIC: 1 µg/mL
[4]; strain 377860, W.T.
  MIC: 1 µg/mL
[4]; strain 384743, PDC/TEM-1
  MIC: 16 µg/mL
[4]; strain 1013996, KPC-2
  MIC: 16 µg/mL
[4]; strain 1071703, GES-6
  MIC: 32 µg/mL
[4]; strain 1113755, GES-5
  MIC: ≥ 256 µg/mL
[4]; strain 1138223, GES-19
  MIC: ≥ 256 µg/mL
[4]; strain 1138337, GES-19
  MIC: ≥ 256 µg/mL
[4]; strain 1258509, GES-6
  MIC: 64 µg/mL
[4]; strain 1275655, GES-20
  MIC: ≥ 256 µg/mL
[4]; strain 1300089, GES-19
  MIC: ≥ 256 µg/mL
[4]; strain 1313666, KPC-2
  MIC: 32 µg/mL
[4]; strain CDC-0090, KPC
  MIC: 32 µg/mL
[4]; strain PA2, W.T.
  MIC: 2 µg/mL
[4]; strain PAA1-9G1, GES-5
  MIC: ≥ 256 µg/mL
[4]; strain PAA1-9G2, GES-5
  MIC: ≥ 256 µg/mL
[4]; strain PS-12, VIM-2
  MIC: ≥ 256 µg/mL
[4]; strain PS-32, VIM-2
  MIC: 128 µg/mL
[4]; strain Paeβ-04, 100-fold ↑ PDC-2/30% OprD/5.6x ↑ABM
  MIC: 2 µg/mL
[4]; strain Paeβ-10, 67-fold ↑ PDC-2/0.1% OprD/5.7x↑ABM
  MIC: 2 µg/mL
[4]; strain Paeβ-15, 310-fold ↑ PDC-2/10% OprD/4.4x↑XYM
  MIC: 4 µg/mL
[4]; strain Paeβ-17, 62-fold ↑PDC-3/30% OprD/10.2x and 9.9x ↑XYM and CDJ
  MIC: 2 µg/mL
[4]; strain Paeβ-18, 600-fold ↑ PDC-3/<0.01% OprD/3.9x and 5.6x ↑ABM and XYM
  MIC: 16 µg/mL
[4]; strain Paeβ-21, 200-fold ↑ PDC-4/10% OprD/13.5x ↑XYM
  MIC: 2 µg/mL
[4]; strain Ps296, VIM-2
  MIC: ≥ 256 µg/mL
[5]
  MIC: 32 µg/mL
[6]; strain 6299, OXA-163
  MIC: ≥ 256 µg/mL
[6]; strain 137052, SHV-11/KPC-3/TEM-1
  MIC: 64 µg/mL
[6]; strain 178279, SHV-12/TEM-1/AmpC
  MIC: 64 µg/mL
[6]; strain 196477, AmpC
  MIC: ≥ 256 µg/mL
[6]; strain 212027, AmpC/FOX-5/TEM-1
  MIC: 8 µg/mL
[6]; strain 515746, OXA-48
  MIC: 128 µg/mL
[6]; strain 664438, OXA-48
  MIC: 128 µg/mL
[6]; strain 664439, OXA-48
  MIC: 128 µg/mL
[6]; strain 722870, OXA-48
  MIC: 64 µg/mL
[6]; strain 752334, OXA-48
  MIC: ≥ 256 µg/mL
[6]; strain 769972, OXA-48
  MIC: 128 µg/mL
[6]; strain 787422, OXA-48
  MIC: 64 µg/mL
[6]; strain 845661, KPC
  MIC: ≥ 256 µg/mL
[6]; strain 847204, KPC
  MIC: 64 µg/mL
[6]; strain 848562, KPC
  MIC: ≥ 256 µg/mL
[6]; strain 848600, KPC
  MIC: ≥ 256 µg/mL
[6]; strain 848828, KPC
  MIC: 128 µg/mL
[6]; strain 849170, KPC
  MIC: 128 µg/mL
[6]; strain 856819, SHV-11/VIM-1
  MIC: ≥ 256 µg/mL
[6]; strain 864085, KPC
  MIC: ≥ 256 µg/mL
[6]; strain 871489, KPC
  MIC: ≥ 256 µg/mL
[6]; strain 873460, SHV-30/CTX-M-15
  MIC: 128 µg/mL
[6]; strain 874328, SHV-11/CTX-M-15/NDM-1
  MIC: ≥ 256 µg/mL
[6]; strain 882752, SHV-11/TEM-1/KPC-3
  MIC: 128 µg/mL
[6]; strain 882956, SHV-31/DHA-1/VIM-1
  MIC: ≥ 256 µg/mL
[6]; strain 884679, KPC
  MIC: 64 µg/mL
[6]; strain 890066, SHV-33/TEM-33/CTX-M-15/IMP-1
  MIC: ≥ 256 µg/mL
[6]; strain 892694, SHV-12/TEM-1/CTX-M-15/OXA-48/ACT
  MIC: ≥ 256 µg/mL
[6]; strain 919877, SHV-OSBL/VIM-1
  MIC: ≥ 256 µg/mL
[6]; strain 1104864, SHV-OSBL(b)/VIM-1
  MIC: ≥ 256 µg/mL
[6]; strain 1104866, SHV-OSBL(b)/VIM-1
  MIC: ≥ 256 µg/mL
[6]; strain 1280442, SHV-OSBL(b)/VIM-1
  MIC: ≥ 256 µg/mL
[6]; strain CDC-0003, KPC
  MIC: 128 µg/mL
[6]; strain CDC-0049, NDM
  MIC: ≥ 256 µg/mL
[6]; strain CDC-0117, KPC-3
  MIC: 128 µg/mL
[6]; strain CDC-0125, KPC-3
  MIC: 128 µg/mL
[6]; strain CDC-0139, NDM-1
  MIC: ≥ 256 µg/mL
[6]; strain CDC-0145, NDM
  MIC: ≥ 256 µg/mL
[6]; strain CDC-0148, NDM
  MIC: ≥ 256 µg/mL
[6]; strain CDC-0152, NDM
  MIC: ≥ 256 µg/mL
[6]; strain DOV, OXA-48
  MIC: 128 µg/mL
[6]; strain ESBL8 #1, TEM-1/SHV-12
  MIC: 32 µg/mL
[6]; strain ESBL 10, SHV-12/TEM-1
  MIC: 32 µg/mL
[6]; strain KIRK, OXA-162
  MIC: 128 µg/mL
[6]; strain KP 3, SHV-1/TEM-1
  MIC: ≥ 256 µg/mL
[6]; strain KPN 508, SHV-7/TEM-1
  MIC: 32 µg/mL
[6]; strain SI-C05, OXA-48
  MIC: ≥ 256 µg/mL
[6]; strain SI-F100, SHV-5/TEM-1/CMY-2
  MIC: 16 µg/mL
[6]; strain SI-KP NO30, TEM-26b/SHV-60/SHV-26
  MIC: 64 µg/mL
[7]
  MIC: 16 µg/mL
[8]; strain 73546, AmpC
  MIC: 4 µg/mL
[8]; strain 110099, AmpC/SHV-12
  MIC: 64 µg/mL
[8]; strain 111707, AmpC/TEM-1
  MIC: 4 µg/mL
[9]; strain 134434, AmpC/SHV-12/TEM-1
  MIC: 64 µg/mL
[9]; strain 192476, AmpC/TEM-1/SHV-5
  MIC: 64 µg/mL
[9]; strain 192478, AmpC/SHV-12/TEM-1
  MIC: 64 µg/mL
[9]; strain 218073, AmpC/SHV-7/TEM-1
  MIC: 64 µg/mL
[10]; strain 134943, CMY-2/TEM-1
  MIC: 8 µg/mL
[10]; strain 847537, KPC
  MIC: ≥ 256 µg/mL
